Experimental data: patent publication US20120028244A1, “Anti-Viral Azide Containing Compounds” (LIFE TECHNOLOGIES CORPORATION, priority 2010, published 2012)

Legend:
HIV = assay: Luciferase reporter assay of infectivity of azide-labeled HIV on TZM/BI reporter cells; format: cell-based, human immunodeficiency virus; details: HIVNL4-3 produced in CEMx174 cells spiked with the compound; labeled virus incubated 12 hours on TZM/BI reporter cells; single cycle replication system; FIGS. 3 and 4
Description: CEMx174 cells were transfected with HIVNL4-3 in a T-150 flask and the virus production was monitored by reverse transcriptase activity until peak virus production occurred (usually 7 to 9 days post transfection). Prior to transfection, the CEMx174 cells were spiked with the following azide-modified biomolecules: 15-azidopentadecanoic acid (50-100 μM), 12-azidododecanoic acid (50-100 μM), tetraacetylated N-azidoacetylgalactosamine (20-40 μM), and tetraacetylated N-azidoacetyl-D-mannosamine (20-40 μM).
Labeled virus was also obtained from the transfected cells. More specifically, virus-containing supernatants were collected and virus was purified through 20% sucrose as previously described (Graham, D. R. et al., Proteomics 2008, 8:4919-30). The purified virus was then mixed with the CLICK-IT® detection reagent, tetramethylrhodamine (TAMRA) alkyne and the CLICK-IT® Protein Reaction Buffer Kit (Invitrogen, Carlsbad, Calif.). Virus samples were run on a one-dimensional gel to reveal azide-labeled viral proteins (FIG. 2). […]
To examine the effect of the azide-modified biomolecules on the innate biology of the virus, the azide-labeled virus from the transfected cells was isolated and tested in cell infection studies. […] Viral infectivity was determined by measuring cellular luciferase activities with two different luciferase reagents.

[1] = system: Nuclear-GFP BacMam 2.0 virus (baculovirus); assay: Infectivity of PTM analog-labeled Nuclear-GFP BacMam virus in U2-OS cells; format: cell-based; details: BacMam virus labeled in Sf9 insect cells with 50 uM analog; U2-OS cells incubated overnight with labeled virus; FIG. 5
Description: Inhibition of insect cell baculovirus infectivity with azido fatty acid analogs: The BacMam system uses a modified insect cell virus (baculovirus) as a vehicle to efficiently deliver and express genes in mammalian cells. A Nuclear-GFP BacMam 2.0 expression system (Invitrogen, C10602) was used as a model to determine if PTM analog labeling of the virus would affect mammalian cell infectivity. Viruses were labeled with various PTM analogs and used to infect mammalian cells. Infectivity was determined by the expression of nuclear-GFP, as viral entry into the cell is required for expression of GFP protein. […]
Characterization of BacMam Virus Production: To verify, quantitate, and normalize the amount of enriched viruses obtained from insect cell supernatants, samples of each virus were lysed in SDS sample preparation buffer (SPB), sonicated with a probe tip sonicator, and heated at 90C to completely dissolve the viral proteins. Viral protein concentrations of the lysates were then determined. […]
Mammalian Cell Infection Protocol: To determine if the PTM analog-labeled viruses retain the ability to infect mammalian cells, 50,000 U2-OS cells (human osteosarcoma cell line) were plated onto a 6 well-chamber glass bottom plate. […] The following day cells were imaged on AMG EVOS fluorescence microscope at 10× or 20× magnification using both white light and GFP filters (FIG. 5). […]

SMILES	impact on the infectivity of the virus (cellular luciferase activity) (HIV)	nuclear-GFP expression in U2-OS cells (viral entry) [1]
[N-]=[N+]=NCCCCCCCCCCCC(=O)O [12-azidododecanoic acid]	profound impact on the infectivity of the virus	no nuclear-GFP expression
[N-]=[N+]=NCCCCCCCCCCCCCCC(=O)O [15-azidopentadecanoic acid]		no nuclear-GFP expression
